Assay results reported in patent US12275729B2 (Merck Sharp & Dohme LLC, priority 2017, dated 2025).
Structures can show the parent of a compound that is named as a salt.

Columns and labels:
[1] = molecular target: T1, IDO1 (Homo sapiens, UniProt P14902); assay: IDO1 Cellular Assay in HeLa Cells Stimulated with IFNγ; assay type: cell-based; conditions: read-out: Hela IC50
[2] = molecular target: T1, IDO1; assay: IDO1 Human Whole Blood Assay; assay type: cell-based; set-up: Human whole blood was drawn in sodium heparin coated tubes from healthy internal donors; from tissue; host or cells: human whole blood from healthy donors, stimulated with LPS and IFNγ; conditions: LPS and IFNγ stimulated
Description: IDO1 Human Whole Blood Assay
Compounds to be tested were serially diluted in ten 3-fold steps in DMSO starting from 10 mM. […] LPS and IFNγ was prepared in RPMI to a 10× of final conc. (1000 ng/mL), final concentration is 100 ng/mL.
Human whole blood was drawn in sodium heparin coated tubes from healthy internal donors. 240 μL of blood was transferred to each of the wells of a v-bottom 96 well plate. 30 μL of compound was transferred from intermediate dilution plate, and incubated for 15 min. 30 μL from stimulants was then transferred to blood and mixed thoroughly.
On day 2 isotope labeled standard of kynurenine and tryptophan was made in water at 1Ox concentration and 30 μL was added to the blood at […] final concentration. The assay plates were centrifuged at 300×G for 10 min with no brake to separate plasma from red blood cells. 60 μL of plasma samples was removed without disturbing red blood cells. Plasma was diluted with RPMI in 1:1 ratio and proteins were precipitated out with two volume of Acetonitrile. The plates were centrifuged at 4000×G for 60 min. 20 μL of supernatant was carefully transferred to a 384 well plate contain 40 μL of 0.1% formic acid in water and analyzed by LC/MS/MS.
LC/MS/MS analyses were performed using Thermo Fisher's LX4-TSQ Quantum Ultra system. This system consists of four Agilent binary high-performance liquid chromatography (HPLC) pumps and a TSQ Quantum Ultra triple quadrupole MS/MS instrument. For each sample, 5 μL were injected onto an Atlantis T3 column (2.1 mm×150 mm, […] particle size) from Waters. The mobile phase gradient pumped at 0.8 mL/min was used to elute the analytes from the column at 25° C. […] Mobile phase A consisted of 0.1% formic acid in water. Mobile phase B consisted of 0.1% of formic acid in acetonitrile. Data was acquired in positive mode using a HESI interface. The operational parameters for the TSQ Quantum Ultra instrument were a spray voltage of 4000 V, capillary temperature of 380° C., vaporizer temperature 400° C., shealth gas 60 arbitrary units, Aux gas 20 arbitrary units, tube lens 85 and collision gas 1.2 mTorr. […] The peak area was integrated by Xcalibur Quan software. The ratios between the kynurenine generated in the reaction and 2D6-Kynurenine spiked-in internal standard were used to generate percentage inhibition and IC50 values.

T1 sequence (P14902 whole entry): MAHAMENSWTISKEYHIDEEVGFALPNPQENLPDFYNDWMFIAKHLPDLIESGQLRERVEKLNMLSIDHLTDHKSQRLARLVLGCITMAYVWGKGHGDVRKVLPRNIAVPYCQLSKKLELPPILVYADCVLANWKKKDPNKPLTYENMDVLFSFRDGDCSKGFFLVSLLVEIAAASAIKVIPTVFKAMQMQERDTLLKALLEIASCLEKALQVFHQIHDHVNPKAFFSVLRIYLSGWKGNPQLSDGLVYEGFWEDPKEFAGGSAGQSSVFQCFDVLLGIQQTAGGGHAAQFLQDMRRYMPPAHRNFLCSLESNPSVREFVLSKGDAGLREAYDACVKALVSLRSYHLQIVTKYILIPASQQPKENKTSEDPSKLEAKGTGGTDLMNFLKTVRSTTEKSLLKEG

| IC50 [1] [nM] | IC50 [2] [nM] | IC50 ([1]; about 48 hours) [nM] | SMILES |
| --- | --- | --- | --- |
| 0.73 | 12 |  | O=C(OC1CC1)N1CCCc2nc(C3(C(=O)Nc4ccc(F)cc4)CC4(CC4)C3)ccc21 [Example 417, cyclopropyl 6-(5-((4-fluorophenyl)carbamoyl)spiro[2.3]hexan-5-yl)-3,4-dihydro-1,5-naphthyridine-1(2H)-carboxylate] |
|  | 135 | 7.3 | CC(NC(=O)c1ccc(F)cc1)c1ccc2c(n1)CCCN2C(=O)c1cc(C(F)F)ccn1 (stereo not drawn) [Example 279, N-(1-(5-(4-(difluoromethyl)picolinoyl)-5,6,7,8-tetrahydro-1,5-naphthyridin-2-yl)ethyl)-4-fluorobenzamide] |
| 1.7 | 12 |  | Cc1nccc(N2CCCc3nc(C4(C(=O)Nc5ccc(F)cc5)CC4(F)F)ccc32)n1 (single isomer, unassigned) [Example 422, 2,2-difluoro-N-(4-fluorophenyl)-1-(5-(2-methylpyrimidin-4-yl)-5,6,7,8-tetrahydro-1,5-naphthyridin-2-yl)cyclopropanecarboxamide] |
|  | 125 | 8 | C[C@@H](NC(=O)c1ccc(F)cc1)c1ccc2c(n1)CCCN2C(=O)[C@H]1CCCO1 [Example 145, 4-fluoro-N-[(1R)-1-{5-[(2R)-oxolane-2-carbonyl]-5,6,7,8-tetrahydro-1,5-naphthyridin-2-yl}ethyl]benzamide] |
|  | 29 | 2.7 | CC(C(=O)Nc1ccc(F)cc1)c1ccc2c(n1)CCCN2C(=O)C1CCCO1 (stereo in doubt) [Example 162, N-(4-fluorophenyl)-2-{5-[(2R)-oxolane-2-carbonyl]-5,6,7,8-tetrahydro-1,5-naphthyridin-2-yl}propanamide] |
| 0.69 | 984 |  | Cc1nccc(N2CCCc3nc(C(C)C(=O)Nc4ccc(Cl)cc4)ccc32)n1 (stereo not drawn) [Example 362, N-(4-chlorophenyl)-2-(5-(2-methylpyrimidin-4-yl)-5,6,7,8-tetrahydro-1,5-naphthyridin-2-yl)propanamide] |
| 27.9 | 436 |  | Cc1nc(N2CCCc3nc(C(C)NC(=O)c4ccc(Cl)cc4)ccc32)c2ccccc2n1 (stereo not drawn) [Example 357, 2-(1-(4-chlorobenzamido)ethyl)-5-(2-methylquinazolin-4-yl)-5,6,7,8-tetrahydro-1,5-naphthyridin-1-ium 2,2,2-trifluoroacetate] |
|  | 101 | 5.7 | Cc1nccc(N2CCCc3nc(C(C)(C)C(=O)Nc4ccc(Cl)c(F)c4)ccc32)n1 [Example 391, N-(4-chloro-3-fluorophenyl)-2-methyl-2-(5-(2-methylpyrimidin-4-yl)-5,6,7,8-tetrahydro-1,5-naphthyridin-2-yl)propanamide] |
| 3.79 | 17 |  | COCCOC(=O)N1CCCc2nc(C3(NC(=O)c4ccc(Cl)cc4)CCC3)ccc21 [Example 413, 2-methoxyethyl 6-(1-(4-chlorobenzamido)cyclobutyl)-3,4-dihydro-1,5-naphthyridine-1(2H)-carboxylate] |
|  | 150 | 4.1 | CC(C(=O)Nc1ccc(F)cc1)c1ccc2c(c1)CCCN2C(=O)C1CC1(F)F (stereo not drawn) [Example 67, 2-[1-(2,2-difluorocyclopropane-1-carbonyl)-1,2,3,4-tetrahydroquinolin-6-yl]-N-(4-fluorophenyl)propanamide] |
|  | 89 | 1.2 | CCc1ccnc(C(=O)N2CCCc3nc(C(C)NC(=O)c4ccc(Cl)cc4)ccc32)c1 (stereo not drawn) [Example 286, 4-chloro-N-(1-(5-(4-ethylpicolinoyl)-5,6,7,8-tetrahydro-1,5-naphthyridin-2-yl)ethyl)benzamide] |
|  | 450 | 5.7 | CC(NC(=O)c1ccc(F)cc1)c1ccc2c(c1)CCCN2C(CO)c1cccc(Cl)c1 (single isomer, unassigned) [Example 93] |
|  | 43 | 2.5 | CC(C(=O)Nc1ccc(F)cc1)c1ccc2c(c1)CCCN2C(=O)c1cccc(Cl)c1 (racemic) [Example 50, 2-[1-(3-chlorobenzene-1-carbonyl)-1,2,3,4-tetrahydroquinolin-6-yl]-N-(4-fluorophenyl)propanamide] |
|  | 50 | 2.37 | CC(C(=O)Nc1ccc(Cl)cc1)c1ccc2c(c1)CC(F)CN2C(=O)c1cccc(Cl)c1 (single isomer, unassigned) [Example 256, 2-(1-(3-chlorobenzoyl)-3-fluoro-1,2,3,4-tetrahydroquinolin-6-yl)-N-(4-chlorophenyl)propanamide] |
|  | 7 | 1.93 | Cc1nccc(N2CCCc3nc(C4(C(=O)Nc5ccc(Cl)cc5)COC4)ccc32)n1 [Example 394, N-(4-chlorophenyl)-3-(5-(2-methylpyrimidin-4-yl)-5,6,7,8-tetrahydro-1,5-naphthyridin-2-yl)oxetane-3-carboxamide] |
|  | 35 | 3 | COCCOC(=O)N1CCCc2nc(C(C)NC(=O)c3ccc(Cl)cc3)ccc21 (stereo not drawn) [Example 212, 2-methoxyethyl 6-{1-[(4-chlorobenzene-1-carbonyl)amino]ethyl}-3,4-dihydro-1,5-naphthyridine-1(2H)-carboxylate] |
| 2.9 | 18 |  | COC[C@@H](C)OC(=O)N1CCCc2nc(C(C)NC(=O)c3ccc(F)cc3)ccc21 (stereo partly drawn) [Example 315, (R)-1-methoxypropan-2-yl 6-(1-(4-fluorobenzamido)ethyl)-3,4-dihydro-1,5-naphthyridine-1(2H)-carboxylate] |
| 1.82 | 16 |  | Cc1nccc(N2CC(F)Cc3cc(C4(NC(=O)c5ccc(Cl)cc5)CC4)ccc32)n1 (racemic) [Example 437, 4-chloro-N-(1-(3-fluoro-1-(2-methylpyrimidin-4-yl)-1,2,3,4-tetrahydroquinolin-6-yl)cyclopropyl)benzamide, 2,2,2-trifluoroacetate salt] |
|  | 6 | 1.8 | Cc1ccnc(C(=O)N2CCCc3nc(C(C)NC(=O)c4ccc(Cl)cc4)ccc32)n1 (stereo not drawn) [Example 287, 4-chloro-N-(1-(5-(4-methylpyrimidine-2-carbonyl)-5,6,7,8-tetrahydro-1,5-naphthyridin-2-yl)ethyl)benzamide] |
| 2.02 | 8 |  | CCC(COC)OC(=O)N1CCCc2nc(C(C)NC(=O)c3ccc(F)cc3)ccc21 (stereo not drawn) [Example 331, 1-methoxybutan-2-yl 6-(1-(4-fluorobenzamido)ethyl)-3,4-dihydro-1,5-naphthyridine-1(2H)-carboxylate] |
|  | 61 | 1.9 | O=C([C@@H]1CCCCO1)N1CCCc2cc(C3(C(=O)Nc4ccc(F)cc4)CCC3)ccc21 (single isomer, unassigned) [Example 105] |
| 0.93 | 178 |  | Cc1nccc(N2CCCc3nc(C(C)C(=O)Nc4ccc(Cl)cc4)ccc32)n1 (stereo not drawn) [Example 363, N-(4-chlorophenyl)-2-(5-(2-methylpyrimidin-4-yl)-5,6,7,8-tetrahydro-1,5-naphthyridin-2-yl)propanamide] |
|  | 51 | 2.3 | C[C@@H](C(=O)Nc1ccc(Cl)cc1)c1ccc2c(c1)CCCN2C(=O)c1cccc(Cl)c1 (single isomer, unassigned) [Example 57] |
| 3.19 | 18 |  | Cc1nccc(N2CCCc3nc(C4(C(=O)Nc5ccc(F)cc5)CC5(CC5)C4)ccc32)n1 [Example 415, 2-(5-((4-fluorophenyl)carbamoyl)spiro [2.3]hexan-5-yl)-5-(2-methylpyrimidin-4-yl)-5,6,7,8-tetrahydro-1,5-naphthyridin-1-ium 2,2,2-trifluoroacetate] |
| 2.64 | 65 |  | Cc1nccc(N2CCCc3nc(C4(C(=O)Nc5ccc(F)cc5)CC4(F)F)ccc32)n1 (single isomer, unassigned) [Example 421, 2,2-difluoro-N-(4-fluorophenyl)-1-(5-(2-methylpyrimidin-4-yl)-5,6,7,8-tetrahydro-1,5-naphthyridin-2-yl)cyclopropanecarboxamide] |
| 3.38 | 18 |  | CC(NC(=O)c1ccc(Cl)cc1)c1ccc2c(n1)CCCN2c1cccc(C2CC2)n1 (stereo not drawn) [Example 351, 4-chloro-N-(1-(5-(6-cyclopropylpyridin-2-yl)-5,6,7,8-tetrahydro-1,5-naphthyridin-2-yl)ethyl)benzamide] |
|  | 50 | 472 | CC(NC(=O)c1ccc(F)cc1)c1ccc2c(n1)CCCN2C(=O)c1cc(C(F)(F)F)ccn1 (stereo not drawn) [Example 278, 4-fluoro-N-(1-(5-(4-(trifluoromethyl)picolinoyl)-5,6,7,8-tetrahydro-1,5-naphthyridin-2-yl)ethyl)benzamide] |
